Assay results: patent publication US20030207813A1, “Retroviral protease inhibitor combinations” (priority 1995, published 2003)
Converted amounts (≈) assume the structure as drawn.

Legend:
Format in all cases: cell-based, HIV-1
[1] = system: RFR2 (RFR cloned by three rounds of limiting dilution); assay: CEM-T4 cell infection assay, reverse transcriptase readout, resistant isolate RFR2; conditions: Human immunodeficiency virus 1, 168 h, Table 6, CEM-T4 cells, 7 days, read-out: Virus Isolate (EC50 ng/mL) RFR2
Text: (§1) RF represents the HIV-1 strain HIV-LRF and RFR represents a mixture of resistant strains obtained by selection of RF against the compound of Example 1. RFR comprises a mixture of viral strains having protease genotypes of G48V (14/40 clones); G48V, V82A (18/40 clones); G48V, L90S (2/40 clones); G48V, 154T, V82A (1/40 clones); G48M (1/40 clones); G48V, Q61H (1/40 clones); V13I, G48V (1/40 clones); G48V, F53L, V82A (1/40 clones); and G48V, V82A, C95Y (1/40 clones). RFR2 represents a mixture of resistant strains obtained by cloning RFR by three rounds of growth at limiting dilution. RFR2 comprises a mixture of viral strains having protease genotypes of G48V, V82A (13/15 clones); G17E, G48V, V82A (1/15 clones); and G48V, V82A, N37D, N88D (1/15 clones). RFRR represents a mixture of resistant strains obtained by selection of RF against the compounds of Examples 1 and 2 and then cloning by three rounds of growth at limiting dilution. RFRR comprises a mixture of viral strains having protease genotypes of G48V, 154T, L63P, V82A (7/9 clones); G48V, 154T, L63P, V82A, N88S (1/9 clones); and G48V, 154T, L63P, G73M, V82A (1/9 clones). SF162 represents the HIV-1 strain SF-162 and SF162R represents a mixture of resistant strains obtained by selection of SF162 against the compound of Example 1. SF162R comprises a mixture of viral strains having protease genotypes of M461, F53L, L63P, A71V, N88D (2/3 clones); and M46I, F53L, L63P, A71V, N88D, Q92R (1/3 clones). 89-959 represents the HIV-1 strain 89-959 and 89-959R represents a mixture of resistant strains obtained by selection of 89-959 against the compound of Example 2. 89-959R comprises a mixture of viral strains having protease genotypes of N88S (4/5 clones); and D25N, T26A, D30N, D37N, R41K, G73D, R87K, N88S (1/4 clones). NL4 represents the HIV-1 strain HIV-1NL4-3. NL4(G48V) represents a strain having a synthetically generated site-directed mutation in the protease from glycine to valine at amino acid position number 48. NL4(I84V) represents a strain having a synthetically generated site-directed mutation in the protease from isoleucine to valine at amino acid position number 84. NL4(R8Q,M46I) represents a strain having synthetically generated site-directed mutations in the protease from arginine to glutamine at amino acid position number 8 and methionine to isoleucine at amino acid position number 46. NL4(P22-538) represents a mixture of resistant strains obtained by selection of HIV-1NL4-3 against the compound of Example 10 after 22 passages comprising protease genotypes M46I, L63P, A71V, V82F, I84V (4/10); M46I, L63P, V82F, I84V (3/10); and M46I, A71V, V82F, I84V (3/10). NL4(P37-538) represents resistant strains obtained by selection of HIV-1NL4-3 against the compound of Example 10 after 37 passages comprising protease genotype M46I, L63P, A71V, 184A. NL4(538/524) represents resistant strains obtained by selection of NL4(P22-538) against the compound of Example 5 after 24 passages comprising protease genotype M46I, L63P, A71V, 184A. NL4(538/P7-AG) represents a mixture of resistant strains obtained by selection of NL4(P22-538) against the compound of Example 12 after 7 passages comprising protease genotypes M46I, L63P, A71V, 184A; and V321, V82I. NL4(538/P24-AG) represents resistant strains obtained by selection of NL4(P22-538) against the compound of Example 12 after 24 passages comprising protease genotype M46I, L63P, A71V, 184A. NLA(P19-003) represents resistant strains obtained by selection of HIV-1^NL4-3 against the compound of Example 9 after 19 passages comprising protease genotype R8K, M46I. NL4(P34-003) represents resistant strains obtained by selection of HIV-1^NL4-3 against the compound of Example 9 after 34 passages comprising protease genotype R8K, M46I, L63P, A71V, L90M.
(§2) The viral isolate resistance results summarized in Tables 4-6 were generated according to the following assay procedure or minor modifications thereof. Assays are performed in 96-well tissue culture plates. […]

[2] = system: RFRR (resistant strains selected from RF against Examples 1 and 2); assay: CEM-T4 cell infection assay, reverse transcriptase readout, resistant isolate RFRR; conditions: Human immunodeficiency virus 1, 168 h, Table 6, CEM-T4 cells, 7 days, read-out: Virus Isolate (EC50 ng/mL) RFRR
Text: as §1, §2

NL4(538/P24-AG) = assay: Viral isolate resistance assay per Markowitz et al., NL4(538/P24-AG); conditions: Human immunodeficiency virus 1; Table 10; NL4(P22-538) selected against Example 12, 24 passages
Text: as §1, with “NLA(P19-003) represents resistant strains obtained by selection of HIV-1^NL4-3 against the compound of Example 9 after 19 passages comprising protease genotype R8K, M46I. NL4(P34-003) represents resistant strains obtained by selection of HIV-1^NL4-3 against the compound of Example 9 after 34 passages comprising protease genotype R8K, M46I, L63P, A71V, L90M.” left out

NL4(538/P7-AG) = assay: Viral isolate resistance assay per Markowitz et al., NL4(538/P7-AG); conditions: Human immunodeficiency virus 1; Table 10; NL4(P22-538) selected against Example 12, 7 passages
Text: as §1, with “NLA(P19-003) represents resistant strains obtained by selection of HIV-1^NL4-3 against the compound of Example 9 after 19 passages comprising protease genotype R8K, M46I. NL4(P34-003) represents resistant strains obtained by selection of HIV-1^NL4-3 against the compound of Example 9 after 34 passages comprising protease genotype R8K, M46I, L63P, A71V, L90M.” left out

| Compound | EC50 [1] [ng/mL] | EC50 [2] [ng/mL] | EC50 (NL4(538/P24-AG)) [nM] | EC50 (NL4(538/P7-AG)) [nM] |
| --- | --- | --- | --- | --- |
| CC(C)CN(C[C@@H](O)[C@H](Cc1ccccc1)NC(=O)[C@H](CC(N)=O)NC(=O)c1ccc2ccccc2n1)C(=O)NC(C)(C)C (relative stereo) [Example 1, [1S-[1R*(R*),2S*]]-N^1-[3-[[[(1,1-dimethylethyl)amino]carbonyl])2-methylpropyl)amino]-2-hydroxy-1-(phenylmethyl)propyl]-2-[(2-quinolinylcarbonyl)amino]-butanediamide] | 880 (≈ 1.46 µM) | 5610 (≈ 9.27 µM) | – | – |
| CC(C)(C)NC(=O)[C@@H]1CC2CCCC[C@@H]2CN1C[C@@H](O)[C@H](Cc1ccccc1)NC(=O)[C@H](CC(N)=O)NC(=O)c1ccc2ccccc2n1 (stereo in doubt) [Example 6, N-tert-Butyl decahydro-2-[2(R)-hydroxy-4-phenyl-3(S)-[[N-(2-quinolylcarbonyl)-L-asparaginyl]amino]butyl]-(4aR,8aS)-isoquinoline-3(S)-carboxamide] | 31 (≈ 0.0462 µM) | 962 (≈ 1.43 µM) | 2400 | 2400 |
| CNCC(=O)N[C@H](C(=O)N[C@@H](Cc1ccccc1)[C@H](O)CN(CCC(C)C)C(=O)NC(C)(C)C)C(C)(C)C [Example 2, (2R,3S)-3-(N-methylaminoacetyl-L-tert-butylglycinyl)amino-1-(N-isoamyl-N-(tert-butylcarbamoyl))amino-4-phenyl-2-butanol] | 367 (≈ 0.688 µM) | 1110 (≈ 2.08 µM) | – | – |
| CC(C)(C)NC(=O)[C@@H]1CN(Cc2cccnc2)CCN1C[C@@H](O)C[C@@H](Cc1ccccc1)C(=O)N[C@H]1c2ccccc2C[C@H]1O [Example 5, N-(2(R)-Hydroxy-1(S)-indanyl)-2(R)-phenylmethyl-4(S)-hydroxy-5-(1-(4-(3-pyridylmethyl)-2(S)-N′-(t-butylcarboxamido)-piperazinyl))-pentaneamide] | 57 (≈ 0.0929 µM) | 982 (≈ 1.6 µM) | 6400 | 6400 |
